PMC4556614 (PLoS ONE, 2015)
Read-outs that look alike come from different tables or passages of the source.

Key:
OCT2 [1] = target: T1, OCT2 (Homo sapiens, UniProt O15244); test: in vitro; settings: for inhibition at 3 min, 20 µM / inhibition at 3 min, 200 µM: pH 7.3, probe [14C]metformin, 1000 µM, metformin 1000 μM, net uptake HEK-OCT2 minus HEK-VC; for inhibition at 3 min, 20 µM: % Inhibition of OCT2-dependent MF uptake at 20 µM (mean ± SEM), test drug 20 µM; for inhibition at 3 min, 200 µM: % Inhibition of OCT2-dependent MF uptake at 200 µM (mean ± SEM), test drug 200 µM
Experimental: (§1) For the transport assays HEK cell lines stably transfected with human OCT2 (HEK-OCT2) or the vector only (HEK-VC) were used. The HEK-OCT2 cell line was established and characterized previously. HEK-OCT2 and HEK-VC cells were seeded in poly-D-lysine (Sigma Aldrich, Taufkirchen, Germany) coated 48-well-plates at a density of 1.2 x 10^5 cells/well. […] Uptake was stopped by washing the cells three times with ice-cold uptake buffer. Afterwards, cells were lysed with 5 mM Tris buffer (pH 7.3) containing 0.1% Triton X-100. The intracellular accumulation of radioactivity was determined by liquid scintillation counting (PerkinElmer, Rodgau-Jügesheim, Germany) and protein concentration of each lysate was measured with bicinchonic acid assay (BCA Protein Assay Kit, Thermo Fisher Scientific, Waltham, MA, USA). We performed two to eight experiments each on at least two separate days, i.e., n = 4–16.
Experimental half-maximal inhibitory concentrations (IC50 values) were measured as the substrate uptake in the presence of increasing concentrations of test drugs. These experiments were performed as described above (three experiments each on two separate days, i.e., n = 6). IC50 values were calculated with GraphPad Prism 5.0 (GraphPad Software, San Diego, CA, USA). IC50 was estimated by a sigmoidal inhibition model and was fit to the equation V = V 0 / (1 + (I / IC50 ) ^n ) by nonlinear regression. V is the net uptake in the presence of the inhibitor, V 0 is the net uptake in the absence of the inhibitor, I is the concentration of the inhibitor and n is the slope.

OCT2 [2] = target: T1, OCT2; test: Inhibition of OCT2-mediated [3H]MPP+ uptake in HEK-OCT2 cells; settings: for inhibition at 3 min, 20 µM / inhibition at 3 min, 200 µM: pH 7.3, probe [3H]MPP+, 50 µM
Experimental: as §1

[3] = test drug 20 µM, MPP+ 50 μM, 3 min, net uptake HEK-OCT2 minus HEK-VC
[4] = test drug 200 µM, MPP+ 50 μM, 3 min, net uptake HEK-OCT2 minus HEK-VC

T1 sequence (O15244 whole entry): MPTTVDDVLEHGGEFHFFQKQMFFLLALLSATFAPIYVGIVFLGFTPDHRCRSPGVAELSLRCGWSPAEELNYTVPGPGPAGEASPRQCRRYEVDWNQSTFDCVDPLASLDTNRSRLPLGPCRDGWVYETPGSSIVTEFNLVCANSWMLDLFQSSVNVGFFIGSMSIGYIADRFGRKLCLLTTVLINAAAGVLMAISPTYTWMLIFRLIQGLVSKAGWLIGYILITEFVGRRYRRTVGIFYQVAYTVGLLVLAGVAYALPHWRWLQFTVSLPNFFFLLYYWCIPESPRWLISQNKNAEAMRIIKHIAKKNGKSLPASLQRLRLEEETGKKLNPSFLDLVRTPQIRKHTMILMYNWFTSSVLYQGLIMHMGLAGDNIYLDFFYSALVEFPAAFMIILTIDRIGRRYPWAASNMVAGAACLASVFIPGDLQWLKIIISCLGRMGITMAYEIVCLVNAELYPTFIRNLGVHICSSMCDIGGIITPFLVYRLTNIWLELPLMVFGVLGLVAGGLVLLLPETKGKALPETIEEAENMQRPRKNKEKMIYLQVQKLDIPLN

Structure (SMILES)	% Inhibition of OCT2-dependent MPP+ uptake at 20 µM (mean ± SEM) (OCT2 [2]; [3])	% Inhibition of OCT2-dependent MPP+ uptake at 200 µM (mean ± SEM) (OCT2 [2]; [4])	% Inhibition of OCT2-dependent MF uptake at 20 µM (mean ± SEM) (OCT2 [1]; human, pH 7.3)	% Inhibition of OCT2-dependent MF uptake at 200 µM (mean ± SEM) (OCT2 [1]; human, pH 7.3)	other results
Cl.Cl.OCCN1CCN(CCC=C2c3ccccc3Sc3ccc(C(F)(F)F)cc32)CC1 (mixture of isomers) [Flupentixol]	22.9 ± 7.5%	107.8 ± 5.0%	–	–	% Inhibition of OCT2-dependent MF uptake at 20 µM (mean ± SEM) (OCT2 [1]): 75.0 ± 7.9; % Inhibition of OCT2-dependent MF uptake at 200 µM (mean ± SEM) (OCT2 [1]): 96.1 ± 2.1
N[C@@H]1C[C@H]1c1ccccc1 (racemic) [Tranylcypromine]	–	–	–	–	% Inhibition of OCT2-dependent MF uptake at 20 µM (mean ± SEM) (OCT2 [1]): 39.0 ± 3.3; % Inhibition of OCT2-dependent MF uptake at 200 µM (mean ± SEM) (OCT2 [1]): 79.1 ± 2.9; % Inhibition of OCT2-dependent MPP+ uptake at 20 µM (mean ± SEM) (OCT2 [2]): 27.8 ± 5.6; % Inhibition of OCT2-dependent MPP+ uptake at 200 µM (mean ± SEM) (OCT2 [2]): 54.7 ± 3.1
CC(=O)Oc1ccccc1C(=O)O [ASA, acetylsalicylic acid]	-10.6 ± 5.7%	-1.5 ± 4.5%	-18.7 ± 11.0%	1.3 ± 8.9%	–
CC(=O)NCCCS(=O)(=O)O [Acamprosate]	-8.1 ± 4.4%	-7.7 ± 5.2%	2.7 ± 4.8%	0.9 ± 5.8%	–
CC(=O)N[C@@H](CS)C(=O)O [Acetylcysteine]	-35.6 ± 7.7%	-36.0 ± 3.2%	13.2 ± 6.3%	11.0 ± 9.4%	–
COc1ccc2cccc(CCNC(C)=O)c2c1 [Agomelatine]	–	–	–	–	inhibition at 3 min, 20 µM (OCT2 [1]; human): 71.3 ± 2.6%; inhibition at 3 min, 200 µM (OCT2 [1]; human): 95.5 ± 1.8%; inhibition at 3 min, 20 µM (OCT2 [2]; human): -10.3 ± 2.7%; inhibition at 3 min, 200 µM (OCT2 [2]; human): 39.9 ± 3.5%
Oc1ncnc2[nH]ncc12 [Allopurinol]	–	–	–	–	inhibition at 3 min, 20 µM (OCT2 [1]; human): 24.8 ± 6.9%; inhibition at 3 min, 200 µM (OCT2 [1]; human): 26.8 ± 3.9%; inhibition at 3 min, 20 µM (OCT2 [2]; human): 35.6 ± 7.5%; inhibition at 3 min, 200 µM (OCT2 [2]; human): 52.7 ± 8.8%
CCN1CCCC1CNC(=O)c1cc(S(=O)(=O)CC)c(N)cc1OC (centres unmarked) [Amisulpride]	–	–	–	–	inhibition at 3 min, 20 µM (OCT2 [1]; human): 52 ± 2.1%; inhibition at 3 min, 200 µM (OCT2 [1]; human): 91.7 ± 0.7%; inhibition at 3 min, 20 µM (OCT2 [2]; human): 25.5 ± 7%; inhibition at 3 min, 200 µM (OCT2 [2]; human): 51.3 ± 6.7%
CCOC(=O)C1=C(COCCN)NC(C)=C(C(=O)OC)C1c1ccccc1Cl (centres unmarked) [Amlodipine]	-13.8 ± 7.4%	39.3 ± 6.8%	21.9 ± 9.0%	110.0 ± 17.3%	–
CC1(C)S[C@@H]2[C@H](NC(=O)[C@H](N)c3ccc(O)cc3)C(=O)N2[C@H]1C(=O)O [Amoxicillin]	-21.0 ± 11.1%	-13.5 ± 14.5%	3.2 ± 6.6%	4.5 ± 5.1%	–
O=C1CCc2ccc(OCCCCN3CCN(c4cccc(Cl)c4Cl)CC3)cc2N1 [Aripiprazole]	6.7 ± 3.6%	16.9 ± 5.2%	53.4 ± 9.1%	82.0 ± 6.7%	–
O=C(CCCN1CCC(n2c(O)nc3ccccc32)CC1)c1ccc(F)cc1 [Benperidol]	-21.5 ± 2.8%	1.6 ± 8.3%	58.7 ± 3.3%	72.2 ± 2.7%	–
CC(C)NCC(O)COc1ccc(COCCOC(C)C)cc1 (centres unmarked) [Bisoprolol]	-16.1 ± 2.2%	11.8 ± 5.5%	57.2 ± 4.0%	75.8 ± 4.5%	–
O=C1CN=C(c2ccccn2)c2cc(Br)ccc2N1 [Bromazepam]	–	–	27.6 ± 2.6%	77.9 ± 1.4%	% Inhibition of OCT2-dependent MPP+ uptake at 20 µM (mean ± SEM) (OCT2 [2]; human, pH 7.3): -16.3 ± 9.0%; % Inhibition of OCT2-dependent MPP+ uptake at 200 µM (mean ± SEM) (OCT2 [2]; human, pH 7.3): 14.7 ± 8.3%
